According to patent publication US8981094B2, “Piperidine/piperazine derivatives” (Janssen Pharmaceutica N.V., priority 2007, dated 2015):

Columns and labels:
[1] = system: plasma triglyceride levels; test: Plasma triglyceride profile after liquid fat meal in dogs; assay type: in vivo; conditions: liquid meal 18% fat, compound given orally, compared with own profile without compound
Experimental: (§1) Dogs were deprived from food for a period of 22 hours. At time 0, animals were given a liquid meal, containing 18% fat (w/w), by gavage with a stomach tube. The test compound was given orally together with the meal. Afterwards, a postprandial plasma profile was determined for GLP-1. Therefore, blood was collected at predetermined time intervals in ice-cooled Vacutainers EDTA-plasma tubes and GLP-1 levels were measured in the samples taken at 0 hour (just before the meal) and at 0.5, 1, 2, 4, 6, 8 and 24 hours after dosing. Six dogs (3 males and 3 females) were included per dosage group and the plasma GLP-1 profile was compared with their own GLP-1 profile previously determined in the same conditions but without administration of the test compound.
In addition to the plasma GLP-1 profile, also the plasma triglyceride profile can be determined and compared with their own triglyceride profile previously determined in the same conditions but without administration of the test compound. After administration of compound 223, triglyceride levels decreased.

[2] = biological target: T1, human DGAT1 (Homo sapiens, UniProt O75907); test: Inhibition of DGAT1 activity, FlashPlate assay with DGAT1 membrane preparations and substrate micelles; assay type: biochemical; conditions: pIC50 = -logIC50, IC50 values expressed in M
T1 construct: FLAG (N); made in house; host or cells: SF9 insect cells (pFastBac baculovirus); total cell membranes
T1 sequence (O75907 1-488): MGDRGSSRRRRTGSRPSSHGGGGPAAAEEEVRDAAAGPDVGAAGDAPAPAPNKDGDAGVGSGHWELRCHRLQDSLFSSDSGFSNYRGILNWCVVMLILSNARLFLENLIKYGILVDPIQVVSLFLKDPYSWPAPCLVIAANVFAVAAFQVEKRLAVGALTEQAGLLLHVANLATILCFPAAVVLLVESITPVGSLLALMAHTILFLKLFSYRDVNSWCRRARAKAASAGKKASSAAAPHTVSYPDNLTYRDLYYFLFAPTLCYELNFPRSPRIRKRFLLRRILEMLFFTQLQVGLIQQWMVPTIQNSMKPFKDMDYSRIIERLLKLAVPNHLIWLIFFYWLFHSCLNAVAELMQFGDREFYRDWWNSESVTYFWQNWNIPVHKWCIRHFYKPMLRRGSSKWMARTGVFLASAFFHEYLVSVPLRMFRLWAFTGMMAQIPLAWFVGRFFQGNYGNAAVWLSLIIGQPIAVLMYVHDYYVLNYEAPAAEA
Method in brief: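 FLAG-tagged human DGAT1 membranes (expressed in Sf9 cells) were incubated 120 min at 37° C. in 50 mM Tris-HCl pH 7.4 with 150 mM MgCl2, 1 mM EDTA, 0.2% BSA, 50 μM DAG micelles (PC/PS) and 8.4 μM [^3H]-oleoylCoA. The reaction was stopped with N-ethylmaleimide and read as FlashPlate radioluminescence. Responses were normalized to enzyme/no-enzyme controls to fit dose-response curves.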

[3] = system: GLP-1 plasma levels; test: In vivo study for effect of test compound on GLP-1 plasma levels (postprandial profile); conditions: dogs fasted 22 hours, liquid meal 18% fat, compound given orally with the meal; compared with own profile without compound; compound 223 at 0.3 mg/kg in FIG. 1
Experimental: B) In Vivo Study for Effect of Test Compound on GLP-1 Plasma Levels
Elevation of GLP-1 plasma levels by a DGAT inhibitor was studied as follows:
as §1
GLP-1 determinations in plasma were performed with a Glucagon-like peptide-1 (active) ELISA kit 96-well plate of LINCO Research.

Row | Structure (SMILES) | IC50 [2] [nM] | melting point [°C] | plasma triglyceride levels (profile) [1] | GLP-1 plasma levels (postprandial plasma profile) [3]
1 | O=C(CCCc1ccccc1)Nc1ccc(N2CCN(C(=O)Nc3c(Cl)c(Cl)cc(Cl)c3Cl)CC2)cc1 [Compound 88] | 479 | 225.1 | – | –
2 | O=C(CCCc1ccccc1)Nc1ccc(N2CCN(C(=O)Nc3c(Cl)cc(Br)c4c3CCO4)CC2)cc1 [Compound 46] | 331 | 223 | – | –
3 | O=C(CCCc1ccccc1)Nc1ccc(N2CCN(C(=O)Nc3c(F)cccc3F)CC2)cc1 [Compound 67] | 60.3 | 187 | – | –
4 | COc1ccc(CNCC(=O)Nc2ccc(N3CCN(C(=O)Nc4c(Cl)cccc4Cl)CC3)cc2)cc1 [Compound 177] | 245 | 128 to 129 | – | –
5 | O=C(CCCc1ccncc1)Nc1ccc(N2CCN(C(=O)Nc3c(Cl)cccc3Cl)CC2)cc1 [Compound 197] | 123 | 251 to 252 | – | –
6 | O=C(CCCc1ccccc1)Nc1ccc(N2CCN(C(=O)Nc3c(Cl)cc(O)cc3Cl)CC2)cc1 [Compound 30] | 4.47 | 175.4 | – | increase GLP-1 levels
7 | COc1cc(Cl)c(NC(=O)N2CCN(c3ccc(NC(=O)CNc4ccc(C)cc4C)cc3)CC2)c(Cl)c1 [Compound 31] | 4.47 | 175 to 176 | – | –
8 | O=C(CCCc1ccccc1)Nc1ccc(N2CCN(C(=O)Nc3c(Cl)cccc3C(F)(F)F)CC2)cc1 [Compound 62] | 16.2 | 254 | – | –
9 | CNC(C)c1cc(Cl)c(NC(=O)N2CCN(c3ccc(NC(=O)CCCc4ccccc4)cc3)CC2)c(Cl)c1 (stereo not drawn) [Compound 24] | 15.8 | 180.7 | – | increase GLP-1 levels
10 | Cc1cc(Br)cc(C)c1NC(=O)N1CCN(c2ccc(NC(=O)CCCc3ccccc3)cc2)CC1 [Compound 61] | 38 | 241.7 | – | –
11 | Cc1ccc(NCC(=O)Nc2ccc(N3CCN(C(=O)Nc4c(Cl)cccc4Cl)CC3)cc2)c(C)c1 [Compound 22] | 14.8 | 248 to 249 | – | –
12 | CCCc1ccccc1NC(=O)N1CCN(c2ccc(NC(=O)CCCc3ccccc3)cc2)CC1 [Compound 77] | 1660 | 200.2 | – | –
13 | O=C(CCCc1ccccc1)Nc1ccc(N2CCN(C(=O)Nc3ccccc3Br)CC2)cc1 [Compound 95] | 126 | 147.4 | – | –
14 | COC(=O)c1ccccc1NC(=O)N1CCN(c2ccc(NC(=O)CCCc3ccccc3)cc2)CC1 [Compound 92] | 7410 | 165.4 | – | –

Now from value to molecule, other results behind:

Row | IC50 [2] [nM] | melting point [°C] | Structure (SMILES) | plasma triglyceride levels (profile) [1] | GLP-1 plasma levels (postprandial plasma profile) [3]
15 | 20 | 252.22 | COc1ccc(CC(=O)Nc2ccc(N3CCN(C(=O)Nc4c(Cl)cc(CN5CCCC5)cc4Cl)CC3)cc2)cc1 [Compound 223] | decreased | increase GLP-1 levels
16 | 19.1 | 168.24 | COc1ccc(CC(=O)Nc2ccc(N3CCN(C(=O)Nc4c(Cl)cc(C[N+]5([O-])CCCC5)cc4Cl)CC3)cc2)cc1 [Compound 299] | – | –
17 | 64.6 | 211 to 212 | CCOC(=O)CCCC(=O)Nc1ccc(N2CCN(C(=O)Nc3c(Cl)cc(CN4CCCCC4)cc3Cl)CC2)cc1 [Compound 318] | – | –
18 | 30.9 | 242.15 | O=C(NCc1cccc2ccccc12)c1ccc(N2CCN(C(=O)Cc3c(Cl)cccc3Cl)CC2)cc1 [Compound 229] | – | –
19 | 2570 | 146.12 | O=C(CCCc1ccccc1)Nc1ccc(N2CCN(C(=O)Cc3ccccc3)CC2)cc1 [Compound 338] | – | –
20 | 17.4 | 241 to 242 | Cc1ccc(NCCC(=O)Nc2ccc(N3CCN(C(=O)Nc4c(Cl)cccc4Cl)CC3)cc2)c(C)c1 [Compound 298] | – | –
21 | 107 | 245 to 246 | C=CC(=O)Nc1ccc(N2CCN(C(=O)Nc3c(Cl)cccc3Cl)CC2)cc1 [Compound 202] | – | –
22 | 7.24 | 149 to 150 | C=CCN(CC(=O)Nc1ccc(N2CCN(C(=O)Nc3c(Cl)cc(OC)cc3Cl)CC2)cc1)Cc1ccc(C)cc1C [Compound 281] | – | –
